# Source: patent US12209141B2, “Dipeptide compounds and uses thereof” (HUAHAI US INC., priority 2018, dated 2025)
# How the values were obtained:
# [1] = system: venous thrombosis in SD Rat; test: Venous thrombosis in rat; assay type: in vivo; design: wet weight of thrombus: unit not given here; settings: for antithrombotic effect (in words): single oral dose of 10 mg/kg
# Excerpt: Animals: SD Rat (Weight 180˜210 g, Sex Male)
# Solution preparation: Weigh proper amount of the test chemical, dissolved in DMSO to give the stock solutions, serial dilution with water then provided the required concentration of administration dosage.
# Experimental procedures: After 3-day adaptive breeding, male Sprague-Dawley rats were randomly divided into groups: model group, positive drug group and compound groups, with 4˜6 rats in each group.
# The rats in the model group were given either intravenous injection or intragastric administration with equivalent solvent, those in the positive or compound group were given either intravenous injection or intragastric administration in a dose of 10 mg/kg.
# The left renal vein was ligated with a silk thread to initiate thrombus formation. After 6 hours of stasis, another ligature was made at the distal side 2 cm apart from the first, thrombus formed inside the vessel was carefully removed, blotted on wet filter paper and weighed.
# Pharmacokinetics in rat = assay type: in vivo, SD Rat; settings: single i.v. dose of 2 mg/kg
# Experimental: Animals: SD Rat (Weight 200˜300 g, Sex Male)
# (§1) Intragastric solution preparation: proper amount of the test chemical was weighed, and dissolved in DMSO to give the stock solution, which was then diluted serially with 0.5% CMC-Na solution to the required concentration of administration dosage.
# (§2) IV solution preparation: proper amount of compound (V) was weighed, and dissolved in normal saline to give the stock solution, which was then diluted serially to the required concentration of administration dosage.
# Experimental procedures: After 3-day adaptive breeding, male Sprague-Dawley rats were divided into groups randomly with 4 rats in each group.
# (§3) Rats were orally given 10 mg/kg of the test compound via gavage for oral study or given 2 mg/kg of compound (V) via the femoral vein for intravenous (i.v.) study. Blood samples were collected from the orbitat at 15 min, 30 min, 1 h, 1.5 h, 2 h, 4 h, 6 h, 8 h, 10 h, and 24 h after dosing and were analyzed by LC-MS/MS after pretreatment.
# (§4) WPS software was used to calculate the mean value, standard deviation, precision and accuracy of each sample.
# [2] = Plasma stability (incubation in rat whole blood, conversion to compound (V)); assay type: in vitro ADME; settings: study period of 8 h
# Experimental: An aliquot of 1 ml of rat whole blood was mixed with 50 ul of stock solution containing the test substance in DMSO (1 mg/ml) to obtain final concentration of 50 ug/ml. The mixture was incubated at 37° C. Samples were taken at time points of 0 min, 30 min, 1 h, 2 h, 4 h and 8 h, and then added to an organic solvent to terminate the reaction. After pretreatment each sample was analyzed by LC-MS/MS to determine the plasma concentrations of compound (III), compound (IV) and compound (V). […] The hydrolysis of the carbamate bond of each compound was accomplished within 30 minutes
# Pharmacokinetics in dog = assay type: in vivo, Beagle Dog; settings: single i.v. dose of 2 mg/kg
# Experimental: as §1, §2
# Experimental procedures: After 3-day adaptive breeding, male dogs were divided into groups randomly with 4 dogs in each group.
# as §3, with “Dogs were” for “Rats were”, “given 5” for “given 10”, “collected” for “collected from the orbitat”
# as §4
# [3] = Solubility tests at different pH values; assay type: physicochemical; settings: aqueous buffer, thermodynamic from solid, 37° C.
# Experimental: Weigh proper amount of the test chemical into buffered salt solutions with different pH value (4.0, 6.3, 7.4 and 9.0), the suspension was shaken at 37° C. for 1 hour. Precipitated and undissolved residues were removed by centrifugation. The content of the supernatant was determined by HPLC to analyze the solubility of the test chemical.
# [4] = single oral administration 10 mg/kg, Model 28.4 ± 7.5
# [5] = male, Sprague-Dawley, plasma, iv
# [6] = single intravenous injection 10 mg/kg, compared with dabigatran, Model 22.7 ± 3.5
# [7] = single intravenous injection 10 mg/kg, compared with melagatran, Model 19.6 ± 3.7
smiles,measurement,setting,value
"CCCCCCOC(=O)N=C(N)c1ccc(CNC(=O)[C@@H]2CCCN2C(=O)[C@@H](CC(C)C)NCC(=O)OC(C)(C)C)cc1.Cl [Compound 19, N-[(tert-butyloxy)carbonyl]methyl-D-leucyl-L-prolyl-{4-[N′-(hexyloxycarbonyl)carbamimidoyl]benzyl} amide hydrochloride]",antithrombotic effect (in words),[1]; rat,significant antithrombotic effect
same,wet weight of thrombus,[1]; [4],13.9 ± 6.0
CC(C)C[C@@H](NCC(=O)O)C(=O)N1CCC[C@H]1C(=O)NCc1ccc(C(=N)N)cc1 [Compound of Formula (V)],AUC(0-inf),Pharmacokinetics in rat; [5],2960 ng·h/mL
same,Cmax,Pharmacokinetics in rat; [5],4720 ng/mL
same,half-life,Pharmacokinetics in rat; [5],301 min
same,CLz/F,Pharmacokinetics in rat,0.696 L/h/kg
same,stability in plasma stability experiment (in words),[2],"substantially stable, with no significant degradation"
same,AUC(0-inf),"Pharmacokinetics in dog; male, beagle, plasma, iv",4340 ng·h/mL
same,Cmax,"Pharmacokinetics in dog; male, beagle, plasma, iv",4040 ng/mL
same,half-life,"Pharmacokinetics in dog; male, beagle, plasma, iv",707 min
same,CLz/F,Pharmacokinetics in dog,0.474 L/h/kg
same,anti-thrombotic activity (in words),"[1]; rat, single injection at 10 mg/kg",superior anti-thrombotic activity compared to dabigatran and melagatran
same,wet weight of thrombus,[1]; [6],13.3 ± 1.5
same,wet weight of thrombus,[1]; [7],6.8 ± 5.0
"CCOC(=O)CN[C@H](CC(C)C)C(=O)N1CCC[C@H]1C(=O)NCc1ccc(C(N)=NC(=O)OCc2oc(=O)oc2C)cc1.Cl [Compound 1, N-[(ethoxy)carbonyl]methyl-D-leucyl-L-prolyl-{4-[N′-(((5-methyl-2-oxo-1,3-dioxol-4-yl)methyl)oxycarbonyl)carbamimidoyl]benzyl} amide hydrochloride]",solubility at 1 h,"[3]; pH 4.0, buffered salt solution",7720 µM
same,solubility at 1 h,"[3]; pH 6.3, buffered salt solution",3990 µM
same,solubility at 1 h,"[3]; pH 7.4, buffered salt solution",613 µM
same,solubility at 1 h,"[3]; pH 9.0, buffered salt solution",196 µM
same,antithrombotic effect (in words),[1]; rat,significant antithrombotic effect
same,wet weight of thrombus,[1]; [4],10.8 ± 5.1
"CCOCCCOC(=O)N=C(N)c1ccc(CNC(=O)[C@@H]2CCCN2C(=O)[C@@H](CC(C)C)NCC(=O)OCC)cc1.Cl [Compound 10, N-[(ethoxy)carbonyl]methyl-D-leucyl-L-prolyl-{4-[N′-((3-(ethoxy)propoxy)carbonyl)carbamimidoyl]benzyl} amide hydrochloride]",solubility at 1 h,"[3]; pH 4.0, buffered salt solution",6520 µM
same,solubility at 1 h,"[3]; pH 6.3, buffered salt solution",3350 µM
same,solubility at 1 h,"[3]; pH 7.4, buffered salt solution",495 µM
same,solubility at 1 h,"[3]; pH 9.0, buffered salt solution",119 µM
same,antithrombotic effect (in words),[1]; rat,significant antithrombotic effect
same,wet weight of thrombus,[1]; [4],14.6 ± 3.6
"CCOC(=O)CN[C@H](CC(C)C)C(=O)N1CCC[C@H]1C(=O)NCc1ccc(C(N)=NC(=O)OCCOC)cc1.Cl [Compound 2, N-[(ethoxy)carbonyl]methyl-D-leucyl-L-prolyl-{4-[N′-((2-(methoxy)ethoxy)carbonyl)carbamimidoyl]benzyl}amide hydrochloride]",antithrombotic effect (in words),[1]; rat,significant antithrombotic effect
same,wet weight of thrombus,[1]; [4],16.7 ± 8.0
"CCOC(=O)CN[C@H](CC(C)C)C(=O)N1CCC[C@H]1C(=O)NCc1ccc(C(N)=NC(=O)CC(C)C(=O)OCC)cc1.Cl (stereo partly drawn) [Compound 12, N-[(ethoxy)carbonyl]methyl-D-leucyl-L-prolyl-{4-[N′-((2-(ethoxycarbonyl)propyl)carbonyl)carbamimidoyl]benzyl} amide hydrochloride]",antithrombotic effect (in words),[1]; rat,significant antithrombotic effect
same,wet weight of thrombus,[1]; [4],20.5 ± 4.7
"N=C(N)c1ccc(CNC(=O)[C@@H]2CCN2C(=O)[C@H](NCC(=O)O)C2CCCCC2)cc1 [Melagatran, reference compound]",wet weight of thrombus,[1]; [7],7.8 ± 7.6
"[H]/N=C(/N)c1ccc(NCc2nc3cc(C(=O)N(CCC(=O)O)c4ccccn4)ccc3n2C)cc1 [Dabigatran, reference compound]",wet weight of thrombus,[1]; [6],15.7 ± 4.0
"CCOCCOCCOC(=O)N=C(N)c1ccc(CNC(=O)[C@@H]2CCCN2C(=O)[C@@H](CC(C)C)NCC(=O)OCC)cc1.Cl [Compound 6, N-[(ethoxy)carbonyl]methyl-D-leucyl-L-prolyl-{4-[N′-((2-(2-(ethoxy)ethoxy)ethoxy)carbonyl)carbamimidoyl]benzyl} amide hydrochloride]",antithrombotic effect (in words),[1]; rat,significant antithrombotic effect
same,wet weight of thrombus,[1]; [4],19.7 ± 6.4
"CCCCCCOC(=O)N=C(N)c1ccc(CNC(=O)[C@@H]2CCCN2C(=O)[C@@H](CC(C)C)NCC(=O)OCC)cc1.Cl [Compound 17, N-[(ethoxy)carbonyl]methyl-D-leucyl-L-prolyl-{4-[N′-(hexyloxycarbonyl)carbamimidoyl]benzyl} amide hydrochloride]",solubility at 1 h,"[3]; pH 4.0, buffered salt solution",5840 µM
same,solubility at 1 h,"[3]; pH 6.3, buffered salt solution",3720 µM
same,solubility at 1 h,"[3]; pH 7.4, buffered salt solution",693 µM
same,solubility at 1 h,"[3]; pH 9.0, buffered salt solution",147 µM
same,antithrombotic effect (in words),[1]; rat,significant antithrombotic effect
same,wet weight of thrombus,[1]; [4],11.0 ± 5.5
"CCOC(=O)CN[C@H](CC(C)C)C(=O)N1CCC[C@H]1C(=O)NCc1ccc(C(N)=NC(=O)OCCOCCOCc2ccccc2)cc1.Cl [Compound 8, N-[(ethoxy)carbonyl]methyl-D-leucyl-L-prolyl-{4-[N′-((2-(2-(benzyloxy)ethoxy)ethoxy)carbonyl)carbamimidoyl]benzyl} amide hydrochloride]",antithrombotic effect (in words),[1]; rat,significant antithrombotic effect
same,wet weight of thrombus,[1]; [4],12.5 ± 3.1
